Source: patent US20040039211A1, “Tetrapyrroles” (DUKE UNIVERSITY AND NATIONAL JEWISH MEDICAL AND RESEARCH …, priority 2000, published 2004)
Marks after values point to notes of the source that are not given here.

Experiments:
[1] = Mn(III)/Mn(II) couple; aqueous solution (pH 7.8, 0.1 M NaCl); Ref 4; cited from earlier work
[2] = Cyclic voltammetry, metal-centered redox potential; assay type: physicochemical; conditions: Mn(III)/Mn(II) couple; 90/10 (v/v) methanol/aqueous solution, pH* 7.9
Method: Manganese(III) Salen. The compound was prepared by the published procedure (Boucher, J. lnorg. Nucl. Chem. 36:531 (1974)). The uv/vis in water: ε235=3.70×10^4 cm^−1 M^−1, ε279=1.70×10^4 cm^−1 M^−1, ε397=4.60×10^3 cm^−M^−1. The elemental analysis: Anal. Calcd for Mn^IIIsalenCl, C16H14N2O2MnCl: C, 53.88; H, 3.96; N; 7.85. Found: C, 54.02; H, 4.06; N, 7.85. […] Based on the E1/2 of Mn^IIITM-2-PyP^5+, ferrocenemethanol and of K3Fe(CN)6 in water and methanol, the redox potential of Mn^III salen^+ in water was calculated to be E1/2=−0.13 V vs NHE.
Electrochemistry of the Manganese(III) Biliverdin Dimethylester. Measurements were made using a CH Instruments model 600 voltammetric analyzer as described previously(Batinic-Haberle et al, Inorg. Chem. 38:4011 (1999)). A three-electrode system in a small volume (0.5-3.0 mL), with a 3 mm diameter glassy carbon button working electrode (Bioanalytical Systems), Ag/AgCl reference electrode (3 M NaCl, Bioanalytical Systems), and a Pt wire (0.5 mm) as auxiliary electrode, were used. The cyclic votammetry was performed on 0.5 mM (per manganese) methanol/aqueous (90/10, v/v) solutions of the compounds investigated. The ionic strength was kept at 0.10 M (NaCl), and 0.05 M tris buffer was used for pH^* adjustment. For calibration purposes, compounds of different hydrophilicities, […], (Kolthof et al, J. Phys. Chem. 39:945 (1935)) ferrocenemethanol and Mn^IIITM-2-PyP^5+ were studied in both aqueous and methanol/aqueous (90/10, v/v) solutions (I=0.10 M NaCl, 0.05 M tris buffer, pH^* 7.9). In all cases the measured E1/2 was 170 mV more positive in methanolic than in aqueous solution and this value was used to predict the redox potential in aqueous solution from measurement in methanol/aqueous solution.

[3] = Ref 4, cited from earlier work

Substance: manganese(III) tetrakis(N-methylpyridinium-2-yl)porphyrin [Mn^III/IITM-2-PyP^5−4−]
- E1/2, V vs NHE [1]: −0.22 V vs NHE
- E1/2, V vs Ag/AgCl [2]: −0.12 V vs Ag/AgCl
- kcat, O2^− dismutation ([3]; 25° C.): 6.0 × 10^7a M^−1 s^−1
- SOD specific activity [3]: 8.500^a U/mg
